{"source": "patent US4248889A", "about": "“3,5-Dihydroxypentanoic ester derivatives having antihyperlipaemic activity” (Sankyo Company Limited, priority 1978, dated 1981)"}
{"target": "cholesterol biosynthesis (crude enzyme extracted from rat liver)", "experiment": "inhibition of cholesterol biosynthesis by crude enzyme extracted from rat liver (radioactive acetic acid, 37° C., 60 minutes; cholesterol precipitated with digitonin, radioactivity measured)", "assay_type": "biochemical", "procedure": "Crude enzyme extracted from rat liver was reacted with radioactive acetic acid at 37° C. for 60 minutes. The radioactive cholesterol thus biosynthesized was saponified and precipitated with digitonin, and the radioactivity was measured to determine the amount of cholesterol produced. The reaction was repeated, by adding one of the compounds of the invention listed in the following Table at the beginning of the reaction, and the amount of cholesterol biosynthesized was again determined, to give a quantitative measurement of the inhibitory effect of the compounds of the invention. The concentrations (μg/ml) of the compounds of the invention and of a known compound (clofibrate) which gave approximately 50% inhibition of cholesterol biosynthesis re reported in the following Table as I50 values [see Bricker et al, The Journal of Biological Chemistry, 247, 4914 (1972)]. The compounds of the invention are identified in the following Table by the numbers heretofore assigned to them.", "units": {"I50 (concentration which gave approximately 50% inhibition of cholesterol biosynthesis)": "µg/mL"}}
{"smiles": "CCOC(=O)CC(O)CC(O)CCCc1cccc2ccccc12", "note": "(centres unmarked) [Compound 6, Ethyl 3,5-dihydroxy-8-(1-naphthyl)octanoate]", "I50 (concentration which gave approximately 50% inhibition of cholesterol biosynthesis)": 3.4}
{"smiles": "CCOC(=O)CC(O)CC(O)COc1ccccc1Cl", "note": "(centres unmarked) [Compound 10, Ethyl 6-(o-chlorophenoxy)-3,5-dihydroxyhexanoate]", "I50 (concentration which gave approximately 50% inhibition of cholesterol biosynthesis)": "5 to 15.2"}
{"smiles": "CCOC(=O)CC(O)CC(O)C(C)Oc1ccccc1", "note": "(centres unmarked) [Compound 9, Ethyl 3,5-dihydroxy-6-phenoxyheptanoate]", "I50 (concentration which gave approximately 50% inhibition of cholesterol biosynthesis)": "23 to 50"}
{"smiles": "CCOC(=O)CC(O)CC(O)CCc1ccc(Cl)cc1", "note": "(centres unmarked) [Compound 2, Ethyl 7-p-chlorophenyl-3,5-dihydroxyheptanoate]", "I50 (concentration which gave approximately 50% inhibition of cholesterol biosynthesis)": 17.2}
{"smiles": "CCOC(=O)CC(O)CC(O)CCc1cccc2ccccc12", "note": "(centres unmarked) [Compound 3, Ethyl 3,5-dihydroxy-7-(1-naphthyl)heptanoate]", "I50 (concentration which gave approximately 50% inhibition of cholesterol biosynthesis)": 5.0}
{"smiles": "CCOC(=O)CC(O)CC(O)C=Cc1ccccc1", "note": "(centres unmarked) [Compound 8, Ethyl 3,5-dihydroxy-7-phenylhept-6-enoate]", "I50 (concentration which gave approximately 50% inhibition of cholesterol biosynthesis)": 9.0}
{"smiles": "CCOC(=O)CC(O)CC(O)CCc1ccccc1", "note": "(centres unmarked) [Compound 1, Ethyl 3,5-dihydroxy-7-phenylheptanoate]", "I50 (concentration which gave approximately 50% inhibition of cholesterol biosynthesis)": 3.7}
{"smiles": "CCOC(=O)C(C)(C)Oc1ccc(Cl)cc1", "note": "[Clofibrate, clofibrate, reference compound]", "I50 (concentration which gave approximately 50% inhibition of cholesterol biosynthesis)": "250 to 300"}
{"smiles": "CCOC(=O)CC(O)CC(O)CCc1c(C)ccc2ccccc12", "note": "(centres unmarked) [Compound 4, Ethyl 3,5-dihydroxy-7-(2-methyl-1-naphthyl)heptanoate]", "I50 (concentration which gave approximately 50% inhibition of cholesterol biosynthesis)": 0.24}
{"smiles": "CCOC(=O)CC(O)CC(O)CCCc1c(C)ccc2ccccc12", "note": "(centres unmarked) [Compound 7, Ethyl 3,5-dihydroxy-8-(2-methyl-1-naphthyl)octanoate]", "I50 (concentration which gave approximately 50% inhibition of cholesterol biosynthesis)": 1.2}
{"smiles": "CCOC(=O)CC(O)CC(O)CCc1c(C)ccc2c1CCCC2", "note": "(centres unmarked) [Compound 5, Ethyl 3,5-dihydroxy-7-(2-methyl-5,6,7,8-tetrahydro-1-naphthyl)heptanoate]", "I50 (concentration which gave approximately 50% inhibition of cholesterol biosynthesis)": 1.56}
